From patent publication US6586368B1, “Condensed heterocylic compounds and herbicides containing them” (Sumitomo Chemical Company, Limited, priority 1998, dated 2003) come the findings set out here.

Holding throughout (assay type): in vivo
The test system of assay [1] is barnyardgrass (Echinochloa oryzicola). Description: Test Example 4: flooded paddy field treatment of barnyardgrass in pots, herbicidal activity. To be noted: emulsifiable concentrate applied on the water surface of flooded pots, dosage of 1000 g/ha, 50 liters per are, plants 12 days after seeding, examined after 9 days in greenhouse.
Assay [2] concerns velvetleaf (Abutilon theophrasti). Description: Test Example 3: soil surface treatment, velvetleaf seeded in pots, herbicidal activity. The settings on record: emulsifiable concentrate sprayed over the surface of the soil after seeding, dosage of 2000 g/ha, 1000 liters per hectare, examined after 9 days in greenhouse.
The test system is the same in assay [3]. Description: Test Example 1: foliage treatment of velvetleaf in pots, herbicidal activity. To be noted: emulsifiable concentrate sprayed over the foliage, dosage of 2000 g/ha, 1000 liters per hectare, plants 14 days after seeding, examined after 8 days in greenhouse.
The test system is the same in assay [4]. Kind of assay: Test Example 2: foliage treatment of velvetleaf in pots, herbicidal activity. The settings on record: emulsifiable concentrate sprayed over the foliage, dosage of 8000 g/ha, 1000 liters per hectare, plants 14 days after seeding, examined after 5 days in greenhouse. Here is the method: Cylindrical plastic pots of 10 cm in diameter and 10 cm in depth were filled with soil, seeded with velvetleaf (Abutilon theophrasti), and kept in a greenhouse for 14 days. After that, according to Formulation Example 2, compound 2-2001 or 3-2001 was formulated into an emulsifiable concentrate, which was diluted in a prescribed amount with water containing a spreading agent and then uniformly sprayed over the foliage of the plants with a sprayer at a ratio of 1000 liters per hectare. The pots were further kept in the greenhouse for 5 days and examined for herbicidal activity.

On to `Cc1cc(Cl)c2occ(-n3c(=O)cc(C(F)(F)F)n(C)c3=O)c2c1` [Compound 1-358], for which the “herbicidal activity: growth of barnyardgrass” value in assay [1] is on record as “completely inhibited the growth”. Besides, the “herbicidal activity: germination of velvetleaf” value (“herbicidal activity: germination” below) in assay [2] was “completely inhibited the germination”. Besides, the “herbicidal activity: growth of velvetleaf” value in assay [3] is reported as “completely inhibited the growth”.

In the case of `Cc1cc2c(-n3c(=O)cc(C(F)(F)F)n(C)c3=O)coc2cc1[N+](=O)[O-]` [Compound 1-361], the “herbicidal activity: growth of barnyardgrass” value in assay [1] was “completely inhibited the growth”. The “herbicidal activity: germination” value in assay [2] is reported as “completely inhibited the germination”. In assay [3], the “herbicidal activity: growth of velvetleaf” value is listed as “completely inhibited the growth”.

As to `CCOC(=O)C=Cc1cc(Cl)c2occ(-n3c(=O)cc(C(F)(F)F)n(C)c3=O)c2c1` [Compound 1-378], the “herbicidal activity: growth of barnyardgrass” value in assay [1] is on record as “completely inhibited the growth”. Moreover, the “herbicidal activity: germination” value in assay [2] is “completely inhibited the germination”. Besides, in assay [3], the “herbicidal activity: growth of velvetleaf” value is given as “completely inhibited the growth”.

For the compound `CCOC(=O)C(Cl)Cc1ccc2occ(-n3c(=O)cc(C(F)(F)F)n(C)c3=O)c2c1` (centres unmarked) [Compound 1-407], the “herbicidal activity: growth of barnyardgrass” value in assay [1] is listed as “completely inhibited the growth”. For the same compound, the “herbicidal activity: germination” value in assay [2] is listed as “completely inhibited the germination”. The “herbicidal activity: growth of velvetleaf” value in assay [3] is “completely inhibited the growth”.

Take `Cn1c(C(F)(F)F)cc(=O)n(-c2coc3cc([N+](=O)[O-])c(F)cc23)c1=O` [Compound 1-431]: in assay [1], the “herbicidal activity: growth of barnyardgrass” value is recorded as “completely inhibited the growth”. Further, the “herbicidal activity: germination” value in assay [2] is “completely inhibited the germination”. Moreover, in assay [3], the “herbicidal activity: growth of velvetleaf” value is recorded as “completely inhibited the growth”.

With `Cn1c(C(F)(F)F)cc(=O)n(-c2coc3cc(Cl)ccc23)c1=O` [Compound 1-861], the “herbicidal activity: growth of barnyardgrass” value in assay [1] was “completely inhibited the growth”. Besides, the “herbicidal activity: germination” value in assay [2] is given as “completely inhibited the germination”. Also, in assay [3], the “herbicidal activity: growth of velvetleaf” value is listed as “completely inhibited the growth”.

Take `O=C1C2=C(CCCC2)C(=O)N1n1ccc2ccccc21` [Compound 2-2001]: the “herbicidal activity: kill of velvetleaf” value in assay [4] is “completely killed”.

With `O=c1cc(C(F)(F)F)ncn1-n1ccc2ccccc21` [Compound 3-2001], the “herbicidal activity: kill of velvetleaf” value in assay [4] is “completely killed”.
